Source: paper PMC7180728, “Novel Anthraquinone Compounds Inhibit Colon Cancer Cell Proliferation via the Reactive Oxygen Species/JNK Pathway” (Molecules, 2020)
Converted amounts (≈) assume the structure as drawn. Where two headings read alike, the source gives them in different places. Residues, ends and D or L forms follow the SMILES beside them. *: point of attachment. Cbz = O=C(OCc1ccccc1)*; CH2F = FC*

Key:
MCF-7 = assay: MTT cell proliferation assay, MCF-7; type: cell-based; conditions: Homo sapiens, MCF7, MCF-7 breast cancer, 48 h
Experimental: (§1) The effects of the synthesized amide anthraquinone derivatives on the proliferative activity of eight human cancerous cell lines (EC9706, MCF-7, SGC-7901, HepG2, QBC939, HeLa, HCT116 and SW480) in addition to two normal human cell lines (colorectal FHC and liver HL7702) were evaluated using the standard MTT assay.
(§2) The human esophageal cancer cell line EC9706 was obtained from Cancer Hospital and Institute by Prof. Ming Rong Wang, Chinese Academy Medical of Sciences. The human colorectal carcinoma cell lines HCT116 and SW480, hepatoma cell line HepG2, cervical carcinoma cell line HeLa, breast cancer cell line MCF-7, gastric cancer cell line SGC-7901, cholangiocarcinoma cell line QBC939, normal fetal colon cell line FHC and liver cell line HL-7702 were obtained from the Cell Bank of the Shanghai Chinese Academy of Sciences. All cells were cultured in RPMI 1640 medium containing 100 U/mL penicillin and streptomycin and 10% fetal bovine serum and maintained at 37°C under a 5% CO2 atmosphere.
(§3) We analyzed the inhibitory effects of eight anthraquinone-amino acid derivatives on the proliferation of eight tumor cell lines and two normal cell lines in vitro using MTT assays. Cells were added to a 96-well plate with (5,000 cells per well in 100 µL RPMI-1640 medium). Cells were treated with different concentrations (10–100 μg/mL) of 8a–8h for 48 h and then incubated with 20 μL MTT (5 mg/mL) for another 4 h at 37°C. DMSO (150 μL) was then added to each well to dissolve the formazan crystals. The absorbance of each well was read at 490 nm on a microtiter plate ELISA reader. The mean values were obtained from a minimum of three parallel experiments. IC50 values were calculated.

HeLa = assay: MTT cell proliferation assay, HeLa; type: cell-based; conditions: Homo sapiens, HeLa cervical cancer, 48 h
Experimental: as §1, §2, §3

QBC939 = assay: MTT cell proliferation assay, QBC939; type: cell-based; conditions: Homo sapiens, QBC939 cholangiocarcinoma, 48 h
Experimental: as §1, §2, §3

EC9708 = assay: MTT cell proliferation assay, EC9706 (Table 1: EC9708); type: cell-based; conditions: Homo sapiens, EC9708 esophageal cancer, 48 h
Experimental: as §1, §2, §3

SW480 = assay: MTT cell proliferation assay, SW480; type: cell-based; conditions: Homo sapiens, SW480 colon cancer, 48 h
Experimental: as §1, §2, §3

FHC = assay: MTT cell proliferation assay, normal colorectal cells FHC; type: cell-based; conditions: FHC normal human colorectal mucosa, 48 h
Experimental: as §1, §2, §3

HL-7702 = assay: MTT cell proliferation assay, normal liver cells HL-7702; type: cell-based; conditions: L02, HL-7702 normal human hepatocyte, 48 h
Experimental: as §1, §2, §3

SGC-7901 = assay: MTT cell proliferation assay, SGC-7901; type: cell-based, human; conditions: SGC-7901 gastric cancer
Experimental: as §1, §2, §3

HCT116 = assay: MTT cell proliferation assay, HCT116; type: cell-based, human; conditions: for IC50: Homo sapiens, HCT-116, HCT116 colon cancer, 48 h
Experimental: as §1, §2, §3

HepG2 = assay: MTT cell proliferation assay, HepG2; type: cell-based; conditions: Homo sapiens, HepG2 liver cancer, 48 h
Experimental: as §1, §2, §3

HCT116 cells = assay: MTT cell viability with or without zVAD-FMK; type: cell-based, human; conditions: zVAD-FMK 5 mM alone, 24 h
Text: Caspases represent a key molecular group in the regulation of apoptosis. In caspases, there is an upstream and downstream relationship between the initiator of apoptosis and executioner. Caspase 3 is one of the key executers of apoptosis, as it is either partially or totally responsible for the proteolytic cleavage of many key proteins. For example, when caspase 9 is activated, it activates caspase 3, which ultimately triggers cell apoptosis. After detecting the expression of the corresponding Bcl-2 family proteins after 8a treatment by western blotting, we went on to detect the expression levels of PARP, caspase 9, cleaved caspase 9, caspase 3, and cleaved caspase 3 proteins. […] After 24 h of treatment with zVAD-FMK, cell viability is 93%.
Figure 7 Effect of 8a on apoptosis-related protein expression. […] PARP, caspase 3, cleaved caspase 3, caspase 9, cleaved caspase 9, Bcl-2, phosphorylated Bcl-2, Bcl-XL, phosphorylated Bcl-xL and Bax were detected by western blot analysis; β-actin was used as a loading control in each lane. Representative data of three independent experiments are shown; (C) and (D) Grayscale analysis of the relative expression of apoptosis-related proteins detected by Western blotting. […] (E) Cells were exposed to 8a (20 μg/mL) and/or zVAD-FMK ([…]) for 24 h, and cell viability was measured by MTT assay. […]

[1] = parameters: method as in earlier work; conditions: cell line not given; compared with 8b 27.87 μg/mL; cited from earlier work
[2] = parameters: method as in PMID 24096626; conditions: on entering the bloodstream; cited from earlier work
[3] = parameters: method as in PMID 27111664, PMID 28811348; conditions: background statement, no own measurement; cited from earlier work
[4] = Homo sapiens, SGC-7901, 48 h, read-out: IC50

| SMILES | IC50 (MCF-7) [µg/mL] | IC50 (HeLa) [µg/mL] | IC50 (QBC939) [µg/mL] | IC50 (EC9708) [µg/mL] | IC50 (SW480) [µg/mL] | IC50 (FHC) [µg/mL] | IC50 (HL-7702) [µg/mL] | IC50 (SGC-7901; [4]) [µg/mL] | IC50 (HCT116) [µg/mL] | IC50 (HepG2) [µg/mL] | cell viability (HCT116 cells) [%] | melting point [°C] | IC50 [1] [µg/mL] | proliferation of HCT116 cells (in words) (HCT116) | fraction bound to plasma proteins [2] [%] | IC50 (SGC-7901; 48 h) [µg/mL] | water solubility [3] |
| --- | --- | --- | --- | --- | --- | --- | --- | --- | --- | --- | --- | --- | --- | --- | --- | --- | --- |
| CC(C)C(NC(=O)c1ccc2c(c1[N+](=O)[O-])C(=O)c1ccccc1C2=O)C(=O)O (stereo not shown) [Compound 8b, 1-nitro-2-acyl-anthraquinone valine] | 30.81 ± 0.05 (≈ 77.7 µM) | 27.87 ± 0.22 (≈ 70.3 µM) | 72.88 ± 0.16 (≈ 184 µM) | 38.94 ± 0.02 (≈ 98.2 µM) | 42.4 ± 0.68 (≈ 107 µM) | > 1000 | > 1000 | 67.98 ± 0.18 (≈ 172 µM) | 21 ± 0.38 (≈ 53 µM) | 44 ± 0.53 (≈ 111 µM) |  |  |  |  |  |  |  |
| COC(=O)C[C@H](NC(=O)[C@H](C)NC(=O)[C@@H](NC(=O)OCc1ccccc1)C(C)C)C(=O)CF [zVAD-FMK, reference compound] (Cbz-Val-Ala-Asp(OMe)-CH2F) |  |  |  |  |  |  |  |  |  |  | 93 |  |  |  |  |  |  |
| O=C1c2ccccc2C(=O)c2c1ccc(C(=O)NC(Cc1ccccc1)C(=O)O)c2[N+](=O)[O-] (stereo not shown) [Compound 8c] | 28.26 ± 0.13 (≈ 63.6 µM) | 25.94 ± 0.22 (≈ 58.4 µM) | 34.2 ± 0.42 (≈ 77.1 µM) | 30.24 ± 0.23 (≈ 68 µM) | 39.5 ± 0.31 (≈ 88.9 µM) | > 1000 | > 1000 | 61.6 ± 0.14 (≈ 139 µM) | 30.12 ± 0.02 (≈ 67.8 µM) | 58.34 ± 0.22 (≈ 131 µM) |  | > 250 |  |  |  |  |  |
| CC(C)C(NC(=O)c1cc(O)c2c(c1)C(=O)c1cccc(O)c1C2=O)C(=O)O (stereo not shown) [rhein valine] |  |  |  |  |  |  |  |  |  |  |  |  | 33.51 (≈ 87.4 µM) |  |  |  |  |
| O=C(O)CCC(NC(=O)c1ccc2c(c1[N+](=O)[O-])C(=O)c1ccccc1C2=O)C(=O)O (stereo not shown) [Compound 8h] | 546.68 ± 0.31 (≈ 1280 µM) | 334.28 ± 0.04 (≈ 784 µM) | 112.02 ± 0.03 (≈ 263 µM) | 112.41 ± 0.03 (≈ 264 µM) | 119.93 ± 0.03 (≈ 281 µM) | > 1000 | > 1000 | 200.35 ± 0.05 (≈ 470 µM) | 100.38 ± 0.04 (≈ 235 µM) | 467.74 ± 0.06 (≈ 1100 µM) |  |  |  | significantly inhibited |  |  |  |
| O=C(O)CNC(=O)c1ccc2c(c1[N+](=O)[O-])C(=O)c1ccccc1C2=O [Compound 8d] | 26.87 ± 0.06 (≈ 75.8 µM) | 28.7 ± 0.17 (≈ 81 µM) | 36.71 ± 0.04 (≈ 104 µM) | 41.47 ± 0.14 (≈ 117 µM) | 43.08 ± 0.05 (≈ 122 µM) | > 1000 | > 1000 | 60.83 ± 0.12 (≈ 172 µM) | 27.75 ± 0.11 (≈ 78.3 µM) | 40.11 ± 0.02 (≈ 113 µM) |  |  |  |  |  |  |  |
| O=C1c2c(O)ccc(O)c2C(=O)c2c(NCCNCCO)ccc(NCCNCCO)c21 [MX, mitoxantrone] |  |  |  |  |  |  |  |  |  |  |  |  |  |  | > 95 |  |  |
| O=C1c2ccccc2C(=O)c2c1ccc(C(=O)N1CCCC1C(=O)O)c2[N+](=O)[O-] (stereo not shown) [Compound 8e] | 31.31 ± 0.13 (≈ 79.4 µM) | 48.82 ± 0.13 (≈ 124 µM) | 37.73 ± 0.23 (≈ 95.7 µM) | 47.35 ± 0.21 (≈ 120 µM) | 60.49 ± 0.07 (≈ 153 µM) | > 1000 | > 1000 | 60.5 (≈ 153 µM) | 35.03 ± 0.25 (≈ 88.8 µM) | 49.07 ± 0.08 (≈ 124 µM) |  |  |  |  |  | 72.31 ± 0.33 (≈ 183 µM) |  |
| CSCCC(NC(=O)c1ccc2c(c1[N+](=O)[O-])C(=O)c1ccccc1C2=O)C(=O)O (stereo not shown) [Compound 8g] | 275.52 ± 0.07 (≈ 643 µM) | 122.52 ± 0.05 (≈ 286 µM) | 290.94 ± 0.05 (≈ 679 µM) | 300.18 ± 0.11 (≈ 701 µM) | 158.37 ± 0.04 (≈ 370 µM) | > 1000 | > 1000 | 235.81 ± 0.02 (≈ 550 µM) | 86.49 ± 0.02 (≈ 202 µM) | 520.52 ± 0.22 (≈ 1210 µM) |  |  |  | significantly inhibited |  |  |  |
| Cc1cc(O)c2c(c1)C(=O)c1cc(O)cc(O)c1C2=O [Emodin, emodin] |  |  |  |  |  |  |  |  |  |  |  |  |  |  |  |  | poor |
| CC(NC(=O)c1ccc2c(c1[N+](=O)[O-])C(=O)c1ccccc1C2=O)C(=O)O (stereo not shown) [Compound 8f] | 342.19 ± 0.22 (≈ 929 µM) | 241.31 ± 0.13 (≈ 655 µM) | 357.52 ± 0.08 (≈ 971 µM) | 257.31 ± 0.2 (≈ 699 µM) | 155.38 ± 0.14 (≈ 422 µM) | > 1000 | > 1000 | 165.3 ± 0.21 (≈ 449 µM) | 98.43 ± 0.13 (≈ 267 µM) | 296.42 ± 0.21 (≈ 805 µM) |  |  |  | significantly inhibited |  |  |  |
